Peptide text beside a SMILES is read from it. * marks the point of attachment. 5FAM = O=C1OC2(c3ccc(O)cc3Oc3cc(O)ccc32)c2ccc(C(=O)*)cc21
Columns and labels:
TauRD fibrils [1] = target: T1, TauRD fibrils (Homo sapiens, UniProt P10636, DEL597-597); assay: Monolith (MST / spectral shift) binding to TauRD fibrils; settings: based on monomer concentration; 50 nM FibrilPaint1, TauRD fibrils 0.5 nM to 10 µM, pH 7.5, 37 °C; N = 3
T1 construct: We used Tau Repeat Domain (Q244-E372, TauRD) with the proaggregation mutation ΔK280; made in house; host or cells: E. coli BL21 Rosetta 2
Description: (§1) We confirmed that FibrilPaint1 binds specifically TauRD fibrils and not monomers by assessing binding affinity with monolith spectral shift analysis (Fig. 1 D and E). […] Since many monomers are needed to form one fibril, true affinity lies higher.
(§2) FibrilPaint1 (50 nM) was titrated with TauRD monomer or fibrils (0.5 nM to 10 µM) at 37 °C (Monolith NT.115); binding was extracted from the 5 s MST response.
(§3) Aragonès Pedrola, Dekker, et al. August 2025 FibrilPaint
(§4) FibrilRuler Test: Size measurement with Flow Induced Dispersion […]
(§5) Flow Induced Dispersion Analysis (FIDA) was used to determine fibril size. The FIDA experiments were performed using a FIDA1 with a 480 nm excitation source. […]
(§6) Data points were analysed using FIDAbio software, version 2.7. […]
(§7) Binding between FibrilPaint1 and TauRD monomers and fibrils was analyzed using Monolith (NanoTemper Technologies) Microscale thermophoresis system (MST). Thermophoresis was monitored at a concentration of 50 nM of FibrilPaint1 and a dilution series of the sample of interest, in 25 mM HEPES-KOH pH 7.5, 75 mM KCl, 75 mM NaCl. […]
(§8) Using equation 1, where L is the length and R the radius of the analysed particle, the mean length of the fibrils as function of Rh can be calculated.
(§9) As a model, PHF Fibril layers were stacked on top of each other using PyMOL software. […] Resulting structures were analysed for their Rh using FIDAbio hydrodynamic radii predictor.

TauRD monomers = target: T2, TauRD monomers (Homo sapiens, UniProt P10636, DEL597-597); assay: Monolith (MST / spectral shift) binding to TauRD monomers; settings: 50 nM FibrilPaint1, 37 °C, N = 3, unit inferred
T2 construct: We used Tau Repeat Domain (Q244-E372, TauRD) with the proaggregation mutation ΔK280; made in house; host or cells: E. coli BL21 Rosetta 2
T2 sequence (P10636 with tags, fused parts or gaps isoform P10636-8 DEL280-280): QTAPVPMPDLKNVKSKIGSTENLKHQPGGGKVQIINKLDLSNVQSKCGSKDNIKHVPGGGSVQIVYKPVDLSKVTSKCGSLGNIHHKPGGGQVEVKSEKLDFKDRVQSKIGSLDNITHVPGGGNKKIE
Description: as §1, §2, §3, §4, §5, §6, §7, §8, §9

[2] = test system: TauRD (Tau Repeat Domain Q244-E372, ΔK280); assay: ThT assay of TauRD aggregation with titrated FibrilPaint peptides (ThT inhibition); type: biochemical, human; settings: for ThT end-plateau / emitted ThT signal: 20 μM TauRD, 5 µM heparin, 45 µM ThT, peptide 2, 0.2, 0.02 µM, pH 7.4, 37 °C, triplicates, N = 3; for Tht inhibition: Yes/No, Suppl. Table S1
Description: We used Tau Repeat Domain (Q244-E372, TauRD) with the proaggregation mutation ΔK280 as a model for screening our FibrilPaint compounds. We performed a Thioflavin T (ThT) assay. ThT is an amyloid dye and provides a semiqualitative method used for the identification of amyloid structures in vitro and histology staining ([32], [33], [38]). A ThT assay is an established method to monitor protein fibrils formation, in which the fluorescent dye ThT emits fluorescence upon binding to fibrils ([38]). We identified 45 µM ThT as optimal concentration to study the kinetics of TauRD aggregation (SI Appendix, Fig. S1), in line with the literature ([39]).
Twenty µM TauRD + 5 µM heparin were incubated ± 45 µM ThT in 25 mM HEPES-KOH pH 7.4, 75 mM KCl/NaCl (37 °C). ThT fluorescence (440/485 nm) was recorded every 5 min for 24 h on a CLARIOstar® Plus; peptides were added as indicated. […]
Peptide synthesis and purification
The peptides were synthesized using a Liberty Blue Microwave-Assisted Peptide Synthesizer (CEM) with standard Fmoc chemistry and Oxyma/DIC as coupling reagents. The peptide concentrations were measured by UV spectroscopy. The peptides were labeled with 5(6)-carboxyfluorescein at their N’ termini. The peptides were cleaved from the resin with a mixture of 95% (v/v) trifluoroacetic acid (TFA), 2.5% (v/v) triisopropylsilane (TIS), 2.5% (v/v) triple distilled water (TDW) agitating vigorously for 3 hours at room temperature. The volume was decreased by N2 flux and the peptides precipitated by addition of 4 volumes of diethylether at -20 °C. The peptides were sedimented at -20 °C for 30 minutes, then centrifuged and the diethylether discarded. The peptides were washed three times with diethylether and dried by gentle N2 flux. The solid was dissolved in 1:2 volume ratio of acetonitrile (ACN):TDW, frozen in liquid Nitrogen and lyophilized.
The peptides were purified on a WATERS HPLC using a reverse-phase C18 preparative column with a gradient of ACN/TDW. The identity and purity of the peptides was verified by ESI mass spectrometry and Merck Hitachi analytical HPLC using a reverse-phase C8 analytical column.
Aggregation of 20 µM TauRD in 25 mM HEPES-KOH pH 7.4, 75 mM KCl, 75 mM
NaCl, ½ tablet/50 ml Protease Inhibitor, was induced by the addition 5 µM of heparin low molecular weight Impact of FibrilPaint peptides was assessed by adding 0.02, 0.2 or 2 µM of peptide.
Monitoring TauRD aggregation by thioflavin T (ThT) fluorescence
For monitoring the aggregation of TauRD by fluorescence, ThT was added to the aggregation mixture before addition of heparin. We used 45 µM ThT as standard condition, unless stated otherwise. […]. […]

TauRD fibrils [3] = target: T1, TauRD fibrils; assay: FIDA (FibrilRuler Test): binding to TauRD fibrils; settings: detection of Tau amyloid fibrils with FIDA; Yes/No; Suppl. Table S1
Description: (§10) Next, we screened the four FibrilPaint peptides for direct binding to TauRD fibrils. We developed an application of FIDA to determine the size of amyloid aggregates, called the FibrilRuler Test (Fig. 1B). FIDA is a recently established technique to measure size of protein complexes ([40], [41]). In FIDA, the detector records the fluorescence signal after passage of the sample through a long capillary. The sample passes a detector window, resulting in a size-dependent diffusion profile of the fluorescent compound. Smaller species diffuse faster and bigger ones slower, resulting in a narrow or broad dispersion of the fluorescent signal (Fig. 1B). Since FIDA readout relies on the physical diffusion properties of the sample, we can measure the hydrodynamic radius (Rh) of labeled species from the fluorescent signal ([42]–[44]). The Rh is a parameter corresponding to the size and shape of a molecule or a complex in solution. It is the radius of the sphere created by the tumbling particle. Rh values can be estimated from the structural coordinates, either by experimental methods or by predictions such as AlphaFold (SI Appendix, Table S2). For known structures, e.g., for many protein fibrils, an experimentally determined Rh value allows us to estimate the dimensions of the particle.
(§11) With this setup, we determined the Rh of FibrilPaint1 to 4 to be 1.7 nm each (SI Appendix, Table S1). The binding of the fluorescently labeled FibrilPaint peptide to protein fibrils increases the Rh value, as the peptide now tumbles together with the larger fibril (Fig. 1B). To measure the Rh of fibril complexes, we incubated preformed fibrils together with each of the four peptides in a 1:100 peptide:monomer ratio, using 200 nM peptide with fibrils made of 20 μM TauRD monomers.
(§12) Preformed or patient-derived fibrils (2 µM monomer) were mixed with 50 nM Fl-FibrilPaint1 and analyzed in capillary dissociation mode (25 °C, FIDA 1). […]
as §6
Target sequence in this assay (P10636 with tags, fused parts or gaps isoform P10636-8 DEL280-280): as above

[4] = FIDA: Rh of peptide alone (unbound); type: physicochemical; settings: peptide not bound to anything
Description: as §10, §11, §12, §6

Amyloid-β (Aβ) plaques = settings: in words; cited from earlier work
Description: The formation of amyloid fibrils is one of the earliest pathological hallmarks of neurodegenerative diseases ([3], [6], [12]–[15]). […] In AD, Aβ aggregation outside the cell precedes Tau aggregation inside the cell ([4], [13], [18]).

CC(C)[C@H](NC(=O)[C@H](CCC(=O)O)NC(=O)[C@H](CCC(=O)O)NC(=O)[C@H](CO)NC(=O)CNC(=O)[C@H](CO)NC(=O)CNC(=O)[C@H](Cc1c[nH]cn1)NC(=O)[C@@H]1CCCN1C(=O)[C@H](Cc1c[nH]cn1)NC(=O)[C@H](Cc1c[nH]cn1)NC(=O)[C@H](Cc1c[nH]c2ccccc12)NC(=O)[C@@H]1CCCN1C(=O)[C@H](Cc1c[nH]c2ccccc12)NC(=O)[C@H](Cc1c[nH]c2ccccc12)NC(=O)[C@@H]1CCCN1C(=O)[C@H](CCCNC(=N)N)NC(=O)[C@H](CCCNC(=N)N)NC(=O)[C@H](Cc1c[nH]c2ccccc12)NC(=O)[C@H](Cc1c[nH]c2ccccc12)NC(=O)[C@@H]1CCCN1C(=O)c1ccc2c(c1)C(=O)OC21c2ccc(O)cc2Oc2cc(O)ccc21)C(=O)N[C@@H](CC(=O)O)C(=O)O [FibrilPaint1] (5FAM-PWWRRPWWPWHHPHGSGSEEVD-OH)
Kd (TauRD fibrils [1]): 1600 nM
Kd (TauRD monomers): > 10000 nM

(Fl)-PWIRRPWWPWTTPTGSGSEEVD [FibrilPaint2, 22-residue fluorescein-labeled peptide]
ThT end-plateau / emitted ThT signal [2]: lower the end-plateau in a dose-dependent manner
Tht inhibition [2]: Yes
Fibril binding (TauRD fibrils [3]): No
Hydrodynamic radius (Rh) [4]: 1.7 nm

(Fl)-PWWDDPWWPWTTPTGSGSEEVD [FibrilPaint3, 22-residue fluorescein-labeled peptide]
ThT end-plateau / emitted ThT signal [2]: lower the end-plateau in a dose-dependent manner
Tht inhibition [2]: Yes
Fibril binding (TauRD fibrils [3]): No
Hydrodynamic radius (Rh) [4]: 1.7 nm

(Fl)-PWWDDPWWPWHHPHGSGSEEVD [FibrilPaint4, 22-residue fluorescein-labeled peptide]
ThT end-plateau / emitted ThT signal [2]: lower the end-plateau in a dose-dependent manner
Tht inhibition [2]: Yes
Fibril binding (TauRD fibrils [3]): No
Hydrodynamic radius (Rh) [4]: 1.7 nm

B1: Lecanemab: antibody approved to target Amyloid-β (Aβ) plaques (antibody, chains of the INN, looked up, V domains shown)
VH: EVQLVESGGGLVQPGGSLRLSCSASGFTFSSFGMHWVRQAPGKGLEWVAYISSGSSTIYYGDTVKGRFTISRDNAKNSLFLQMSSLRAEDTAVYYCAREGGYYYGRSYYTMDYWGQGTTVTVSS
VL: DVVMTQSPLSLPVTPGAPASISCRSSQSIVHSNGNTYLEWYLQKPGQSPKLLIYKVSNRFSGVPDRFSGSGSGTDFTLRISRVEAEDVGIYYCFQGSHVPPTFGPGTKLEIK
clinical effect (Amyloid-β (Aβ) plaques): modest
risks (Amyloid-β (Aβ) plaques): significant risks involved

From paper PMC12595476, “FibrilPaint to determine the length of Tau amyloids in fluids” (Proceedings of the National Academy of Sciences of the …, 2025)
